Results published in patent publication US20240041042A1, “1-(PYRIDYL)-5-AZINYLPYRAZOLE DERIVATIVES, AND THEIR USE FOR CONTROL OF UNDESIRED PLANT GROWTH” (Bayer Aktiengesellschaft, priority 2020, published 2024).
Read-outs that look alike come from different tables or passages of the source.

How the values were obtained:
Assay type in all cases: in vivo
[1] = system: Zea mays (ZEAMX); details: pre-emergence, crop plant compatibility, in comparison to untreated controls
How it was run: (§1)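 Scoring: visual, % of untreated control, about 3 weeks after a pre-emergence application to the soil surface. Application used WP or EC formulations diluted in water with 0.5% additive at 600 l/ha; dosage levels are marked by suffixes a, b and c.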

[2] = system: Oryza sativa (ORYSA); details: pre-emergence, crop plant compatibility, in comparison to untreated controls
How it was run: as §1

[3] = system: Triticum aestivum (TRZAS); details: pre-emergence, crop plant compatibility, in comparison to untreated controls
How it was run: as §1

[4] = system: Glycine max (GLXMA); details: pre-emergence, crop plant compatibility, in comparison to untreated controls
How it was run: as §1

[5] = system: Brassica napus (BRSNW); details: crop plant compatibility, in comparison to untreated controls
How it was run: as §1

[6] = system: Pharbitis purpurea (PHBPU); experiment: Post-emergence herbicidal action against PHBPU
How it was run: (§2)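 Doses of 320 g/ha or lower, suffixes a, b and c marking different dosages, were applied post-emergence at the one-leaf stage in 600 l/ha water with 0.5% additive. Damage was assessed visually after about 3 weeks in the greenhouse.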

[7] = system: Zea mays (ZEAMX); details: crop plant compatibility, effect vs untreated controls
How it was run: (§3)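 Test crops were treated 2 to 3 weeks after sowing, once they reached one leaf, by spraying compound in water with 0.5% additive at 600 l/ha. Visual scoring compared them with untreated controls roughly 3 weeks on, and appendices a, b and c denote different doses.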

[8] = system: Oryza sativa (ORYSA); details: crop plant compatibility, effect in comparison to untreated controls
How it was run: as §3

[9] = system: Triticum aestivum (TRZAS); details: crop plant compatibility, 80 g/ha, effect vs untreated controls
How it was run: as §3

[10] = system: Viola tricolor (VIOTR); experiment: Pre-emergence herbicidal action against VIOTR; details: 320 g/ha, Viola tricolor
How it was run: (§4)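 Herbicide applied to soil before seedling emergence, at 600 l/ha spray volume with 0.5% additive and rates up to 320 g/ha. Evaluation: visual percentage effect, about 3 weeks later, greenhouse-grown pots compared with untreated ones.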

[11] = system: Lolium rigidum (LOLRI); experiment: Pre-emergence herbicidal action against LOLRI; details: dosage 320 g/ha
How it was run: as §4

[12] = system: Avena fatua (AVEFA); experiment: Pre-emergence herbicidal action against AVEFA; details: 320 g/ha, visual scoring after about 3 weeks vs untreated controls
How it was run: as §4

[13] = system: Amaranthus retroflexus (AMARE); experiment: Pre-emergence herbicidal action against AMARE; details: visual scoring after about 3 weeks vs untreated controls
How it was run: as §4

[14] = system: Matricaria inodora (MATIN); experiment: Pre-emergence herbicidal action against MATIN
How it was run: as §4

[15] = system: Abutilon theophrasti (ABUTH); experiment: Post-emergence herbicidal action against ABUTH; details: 320 g/ha, visual rating about 3 weeks after treatment vs untreated controls (100% = plants have died, 0% = like control plants)
How it was run: as §2

[16] = system: Lolium rigidum (LOLRI); experiment: Post-emergence herbicidal action against LOLRI; details: dosage 320 g/ha
How it was run: as §2

[17] = system: Amaranthus retroflexus (AMARE); experiment: Post-emergence herbicidal action against AMARE; details: 320 g/ha, visual rating about 3 weeks after treatment
How it was run: as §2

[18] = system: Avena fatua (AVEFA); experiment: Post-emergence herbicidal action against AVEFA; details: visual rating about 3 weeks after treatment
How it was run: as §2

[19] = system: Viola tricolor (VIOTR); experiment: Post-emergence herbicidal action against VIOTR
How it was run: as §2

[20] = system: Setaria viridis (SETVI); experiment: Post-emergence herbicidal action against SETVI
How it was run: as §2

[21] = system: Alopecurus myosuroides (ALOMY); experiment: Post-emergence herbicidal action against ALOMY; details: 320 g/ha, visual rating about 3 weeks after treatment vs untreated controls (100% = plants have died, 0% = like control plants)
How it was run: as §2

[22] = system: Matricaria inodora (MATIN); experiment: Post-emergence herbicidal action against MATIN; details: dosage 320 g/ha
How it was run: as §2

[23] = system: Echinochloa crus-galli (ECHCG); experiment: Pre-emergence herbicidal action against ECHCG; details: dosage 320 g/ha
How it was run: as §4

[24] = system: Setaria viridis (SETVI); experiment: Pre-emergence herbicidal action against SETVI; details: dosage 320 g/ha
How it was run: as §4

[25] = system: Alopecurus myosuroides (ALOMY); experiment: Pre-emergence herbicidal action against ALOMY; details: 320 g/ha; scored visually after about 3 weeks; 100% = plants have died
How it was run: as §4

[26] = system: Polygonum convolvulus (POLCO); experiment: Pre-emergence herbicidal action against POLCO; details: dosage 320 g/ha
How it was run: as §4

[27] = system: Polygonum convolvulus (POLCO); experiment: Post-emergence herbicidal action against POLCO; details: dosage 320 g/ha
How it was run: as §2

[28] = system: Verconica persica (VERPE); experiment: Pre-emergence herbicidal action against VERPE; details: dosage 320 g/ha
How it was run: as §4

[29] = system: Echinochloa crus-galli (ECHCG); experiment: Post-emergence herbicidal action against ECHCG
How it was run: as §2

Row | Structure (SMILES) | Pre-emergence action against ZEAMX in % ([1]; 80 g/ha) | Pre-emergence action against ZEAMX in % ([1]; 320 g/ha) | Pre-emergence action against ORYSA in % ([2]; 320 g/ha) | Pre-emergence action against TRZAS in % ([3]; 80 g/ha) | Pre-emergence action against GLXMA in % ([4]; 80 g/ha) | Pre-emergence action against GLXMA in % ([4]; 320 g/ha) | Pre-emergence action against BRSNW in % ([5]; 80 g/ha) | Pre-emergence action against BRSNW in % ([5]; 320 g/ha) | Post-emergence action against ZEAMX in % ([7]; 80 g/ha) | Post-emergence action against ZEAMX in % ([7]; 320 g/ha) | Post-emergence action against ORYSA in % ([8]; 80 g/ha) | Post-emergence action against ORYSA in % ([8]; 320 g/ha) | Post-emergence action against TRZAS in % [9] | Pre-emergence action against ORYSA in % ([2]; 80 g/ha) | Post-emergence action against PHBPU in % ([6]; dosage 320 g/ha) | Pre-emergence action against VIOTR in % [10] | Pre-emergence action against LOLRI in % [11] | Pre-emergence action against AMARE in % ([13]; 320 g/ha) | Pre-emergence action against MATIN in % ([14]; dosage 320 g/ha) | Post-emergence action against AMARE in % [17] | further results
1 | COC(=O)COc1nn(-c2ncccc2OC)c(-c2ccc(F)nc2)c1Cl [Example I-346] | 0% | 0% | 0% | 0% | 0% | 20% | 0% | 20% | 0% | 0% | 0% | 0% | 10% | – | 90% | 80% | – | – | – | – | –
2 | CCOC(=O)COc1nn(-c2ncccc2OC)c(-c2ccc(F)nc2)c1I [Example I-386] | 0% | 0% | 20% | 20% | 0% | 0% | 0% | 0% | 0% | 0% | 0% | 0% | – | 0% | – | – | – | – | – | – | –

Now from value to molecule, other results behind:

Row | Pre-emergence action against ZEAMX in % ([1]; 80 g/ha) | Pre-emergence action against ZEAMX in % ([1]; 320 g/ha) | Pre-emergence action against ORYSA in % ([2]; 320 g/ha) | Pre-emergence action against TRZAS in % ([3]; 80 g/ha) | Pre-emergence action against GLXMA in % ([4]; 80 g/ha) | Pre-emergence action against GLXMA in % ([4]; 320 g/ha) | Pre-emergence action against BRSNW in % ([5]; 80 g/ha) | Pre-emergence action against BRSNW in % ([5]; 320 g/ha) | Post-emergence action against ZEAMX in % ([7]; 80 g/ha) | Post-emergence action against ZEAMX in % ([7]; 320 g/ha) | Post-emergence action against ORYSA in % ([8]; 80 g/ha) | Post-emergence action against ORYSA in % ([8]; 320 g/ha) | Post-emergence action against TRZAS in % [9] | Pre-emergence action against ORYSA in % ([2]; 80 g/ha) | Structure (SMILES) | Post-emergence action against PHBPU in % ([6]; dosage 320 g/ha) | Pre-emergence action against VIOTR in % [10] | Pre-emergence action against LOLRI in % [11] | Pre-emergence action against AMARE in % ([13]; 320 g/ha) | Pre-emergence action against MATIN in % ([14]; dosage 320 g/ha) | Post-emergence action against AMARE in % [17] | further results
3 | – | – | – | 0% | – | 20% | 20% | – | – | – | 0% | 10% | 0% | 0% | O=C(O)CSc1nn(-c2ccccn2)c(-c2ccc(F)nc2)c1Br [Example I-69] | 80% | 90% | 80% | 90% | 90% | 80% | Pre-emergence action against AVEFA in % [12]: 80%; Pre-emergence action against AMARE in % ([13]; 80 g/ha): 80%; Post-emergence action against ABUTH in % [15]: 80%; Post-emergence action against PHBPU in % ([6]; dosage 80 g/ha): 80%; Post-emergence action against LOLRI in % [16]: 80%; Post-emergence action against AVEFA in % ([18]; 80 g/ha): 80%; Post-emergence action against AVEFA in % ([18]; 320 g/ha): 100%; Post-emergence action against VIOTR in % ([19]; 80 g/ha): 80%; Post-emergence action against VIOTR in % ([19]; 320 g/ha): 80%; Post-emergence action against SETVI in % ([20]; dosage 80 g/ha): 80%; Post-emergence action against SETVI in % ([20]; dosage 320 g/ha): 80%; Post-emergence action against ALOMY in % [21]: 90%; Post-emergence action against MATIN in % [22]: 80%; Pre-emergence action against ECHCG in % [23]: 90%; Pre-emergence action against SETVI in % [24]: 100%
4 | 0% | 0% | 0% | 0% | 0% | – | 0% | – | 20% | – | 10% | 20% | 20% | 0% | O=C(O)CNC(=O)COc1nn(-c2ccnc(F)c2)c(-c2ccc(F)nc2)c1Br [III-26] | – | – | – | – | – | – | Pre-emergence action against TRZAS in % ([3]; 320 g/ha): 20%
5 | – | – | – | 20% | 20% | – | 20% | – | – | – | 0% | 0% | – | – | COC(=O)CNC(=O)CSc1nn(-c2ccccn2)c(-c2cncnc2)c1Br [Example I-65] | – | 100% | 90% | 90% | 90% | 80% | Pre-emergence action against ALOMY [25]: 80%; Pre-emergence action against POLCO in % [26]: 90%; Pre-emergence action against MATIN in % ([14]; dosage 80 g/ha): 80%; Post-emergence action against POLCO in % [27]: 80%; Pre-emergence action against VERPE in % [28]: 80%; Post-emergence action against ECHCG in % ([29]; dosage 80 g/ha): 80%; Post-emergence action against ECHCG in % ([29]; dosage 320 g/ha): 80%; Post-emergence action against AVEFA in % ([18]; 320 g/ha): 80%; Post-emergence action against SETVI in % ([20]; dosage 320 g/ha): 80%; Pre-emergence action against ECHCG in % [23]: 90%; Pre-emergence action against SETVI in % [24]: 90%
